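A five-concentration, 48-hour dose response in 96-well plates underlies each endpoint, interpolated linearly between surrounding concentrations. GI50: concentration for 50% inhibition of growth.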 Activity calls are given as the source filed them. Rule as the data show it: active = GI50 up to about 1.1 µM and inactive = higher.
How the values were obtained:
Assay in all cases: growth of human tumour cells (NCI), 48 h
SF-295 = system: SF-295
OVCAR-8 = system: OVCAR-8
K562 = system: K562
T47D = system: T47D
SF-268 = system: SF-268
RPMI-8226 = system: RPMI-8226
MOLT-4 = system: MOLT-4
OVCAR-3 = system: OVCAR-3
KM12 = system: KM12
MCF7 = system: MCF7
TK-10 = system: TK-10
ACHN = system: ACHN
LOX IMVI = system: LOX IMVI
SF-539 = system: SF-539
CAKI-1 = system: CAKI-1
BT-549 = system: BT-549
COLO 205 = system: COLO 205
PC-3 = system: PC-3
SK-OV-3 = system: SK-OV-3
M14 = system: M14

Brc1ccc(/N=C/C=C(\Nc2ccc(Br)cc2)C23CC4CC(CC(C4)C2)C3)cc1
GI50 (SF-295): 10000 nM (inactive) | GI50 (OVCAR-8): 19400 nM (inactive) | GI50 (K562): 4500 nM (inactive) | GI50 (T47D): 8070 nM (inactive) | GI50 (SF-268): 10200 nM (inactive) | GI50 (RPMI-8226): 14700 nM (inactive) | GI50 (MOLT-4): 6070 nM (inactive) | GI50 (OVCAR-3): 14100 nM (inactive) | GI50 (KM12): 12700 nM (inactive) | GI50 (MCF7): 11000 nM (inactive) | GI50 (TK-10): 14800 nM (inactive) | GI50 (ACHN): 11100 nM (inactive) | GI50 (LOX IMVI): 1910 nM (inactive) | GI50 (SF-539): 20000 nM (inactive) | GI50 (CAKI-1): 11400 nM (inactive) | GI50 (BT-549): 15700 nM (inactive) | GI50 (COLO 205): 9620 nM (inactive) | GI50 (PC-3): 16100 nM (inactive) | GI50 (SK-OV-3): 18600 nM (inactive) | GI50 (M14): 9750 nM (inactive)

CC(=O)NC1C(OCc2ccccc2)OC(CO)C(O)C1OCC(=O)N1CCCC1C(=O)NC(CCC(=O)NCCCCCNc1c2ccccc2nc2cccc([N+](=O)[O-])c12)C(N)=O (stereo not given)
GI50 (SF-295): 48 nM (active) | GI50 (OVCAR-8): 4.97 nM (active) | GI50 (K562): 3.66 nM (active) | GI50 (T47D): 578 nM (active) | GI50 (SF-268): 20.1 nM (active) | GI50 (RPMI-8226): 3.31 nM (active) | GI50 (MOLT-4): 56.1 nM (active) | GI50 (OVCAR-3): 30.1 nM (active) | GI50 (KM12): 20 nM (active) | GI50 (MCF7): 3 nM (active) | GI50 (TK-10): 50.8 nM (active) | GI50 (ACHN): 8.65 nM (active) | GI50 (LOX IMVI): 166 nM (active) | GI50 (SF-539): 45.6 nM (active) | GI50 (CAKI-1): 26.2 nM (active) | GI50 (BT-549): 52.4 nM (active) | GI50 (COLO 205): 14.4 nM (active) | GI50 (PC-3): 3.21 nM (active) | GI50 (SK-OV-3): 86.9 nM (active) | GI50 (M14): 22.8 nM (active)
